From PubChem BioAssay AID250 (DTP/NCI, 2004)
“And” between values parts separate entries of the source, which are not always exact repeats. Equal values may be shown once. Toxic doses and inconclusive results are not listed.

Tested on: BDF1 mice, L1210 leukemia sc, survival T/C
Assay: NCI In Vivo Anticancer Drug Screen. Data for tumor model L1210 Leukemia (subcutaneous) in B6D2F1 (BDF1) mice
Conditions: endpoint: median survival time, higher = longer survival
Method in brief: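 Read-out: T/C ratio, i.e. survival or tumor size in treated mice over that in vehicle-treated controls, from mice bearing transplantable tumors.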

Q: Which T/C (dose: 9.38 mg/kg/injection, schedule: Q01DX009 (ip), vehicle: saline) does the source give for `CCCCCCCCCCCCCCCC(=O)OCC1OC(n2ccc(N)nc2=O)C(O)C1O` (stereo not drawn) here?
A: The T/C was 211 % of control.

Q: What about the T/C (dose: 9.38 mg/kg/injection, schedule: Q01DX009 (sc), vehicle: saline) of the same compound?
A: Its T/C is 177 % of control.

Q: And the T/C (dose: 18.75 mg/kg/injection, schedule: Q01DX009 (ip), vehicle: saline)?
A: Its T/C is 233 % of control.

Q: What about the T/C (dose: 18.75 mg/kg/injection, schedule: Q01DX009 (sc), vehicle: saline) of the same compound?
A: Its T/C is 233 % of control.

Q: What about the T/C (dose: 18.75 mg/kg/injection, schedule: Q04DX003 (sc), vehicle: saline) of the same compound?
A: The T/C was 183 % of control.

Q: What about the T/C (dose: 37.5 mg/kg/injection, schedule: Q01DX001 (ip), vehicle: saline) of the same compound?
A: The T/C was 155 % of control.

Q: And the T/C (dose: 37.5 mg/kg/injection, schedule: Q01DX001 (sc), vehicle: saline)?
A: Its T/C is 161 % of control.

Q: And the T/C (dose: 37.5 mg/kg/injection, schedule: Q01DX009 (sc), vehicle: saline)?
A: The T/C was 188 % of control.

Q: And the T/C (dose: 37.5 mg/kg/injection, schedule: Q04DX003 (ip), vehicle: saline)?
A: The T/C was 216 % of control.

Q: And the T/C (dose: 37.5 mg/kg/injection, schedule: Q04DX003 (sc), vehicle: saline)?
A: The T/C was 233 % of control.

Q: What about the T/C (dose: 75.0 mg/kg/injection, schedule: Q01DX001 (ip), vehicle: saline) of the same compound?
A: The T/C was 194 % of control.

Q: And the T/C (dose: 75.0 mg/kg/injection, schedule: Q01DX001 (sc), vehicle: saline)?
A: The T/C was 95 % of control and 98 % of control and 233 % of control.

Q: And the T/C (dose: 75.0 mg/kg/injection, schedule: Q01DX009 (sc), vehicle: saline)?
A: The T/C was 150 % of control.

Q: And the T/C (dose: 75.0 mg/kg/injection, schedule: Q04DX003 (ip), vehicle: saline)?
A: Its T/C is 227 % of control.

Q: And the T/C (dose: 75.0 mg/kg/injection, schedule: Q04DX003 (sc), vehicle: saline)?
A: Its T/C is 244 % of control.

Q: What about the T/C (dose: 150.0 mg/kg/injection, schedule: Q01DX001 (ip), vehicle: saline) of the same compound?
A: The T/C was 255 % of control.

Q: What about the T/C (dose: 150.0 mg/kg/injection, schedule: Q01DX001 (sc), vehicle: saline) of the same compound?
A: The T/C was 95 % of control and 98 % of control and 238 % of control.

Q: And the T/C (dose: 150.0 mg/kg/injection, schedule: Q01DX009 (ip), vehicle: saline)?
A: The T/C was 122 % of control.

Q: What about the T/C (dose: 150.0 mg/kg/injection, schedule: Q04DX003 (ip), vehicle: saline) of the same compound?
A: Its T/C is 177 % of control.

Q: What about the T/C (dose: 150.0 mg/kg/injection, schedule: Q04DX003 (sc), vehicle: saline) of the same compound?
A: Its T/C is 150 % of control.

Q: And the T/C (dose: 600.0 mg/kg/injection, schedule: Q01DX001 (ip), vehicle: saline)?
A: Its T/C is 116 % of control.

Q: What does the source list for `O=c1[nH]c(=O)n(C2OC(CO)C(O)C2O)cc1I` (stereo not drawn)?
A: T/C (dose: 39.0 mg/kg/injection, schedule: Q01DX Z (sc), vehicle: saline): 100 % of control; T/C (dose: 65.0 mg/kg/injection, schedule: Q01DX Z (sc), vehicle: saline): 100 % of control; T/C (dose: 108.0 mg/kg/injection, schedule: Q01DX Z (sc), vehicle: saline): 100 % of control; T/C (dose: 180.0 mg/kg/injection, schedule: Q01DX Z (sc), vehicle: saline): 94 % of control and 100 % of control; T/C (dose: 300.0 mg/kg/injection, schedule: Q01DX Z (sc), vehicle: saline): 100 % of control; T/C (dose: 500.0 mg/kg/injection, schedule: Q01DX Z (sc), vehicle: saline): 100 % of control and 105 % of control; T/C (dose: 833.0 mg/kg/injection, schedule: Q01DX Z (sc), vehicle: saline): 94 % of control; T/C (dose: 1388.0 mg/kg/injection, schedule: Q01DX Z (sc), vehicle: saline): 94 % of control

Q: For `CC(=O)OCC1OC(n2ccc(N)nc2=O)C(OC(C)=O)C1OC(C)=O` (stereo not drawn), which T/C (dose: 20.0 mg/kg/injection, schedule: Q01DX Z (oral), vehicle: carboxymethylcellulose (CMC)) is on record?
A: The T/C was 220 % of control.

Q: And the T/C (dose: 20.0 mg/kg/injection, schedule: Q01DX Z (sc), vehicle: carboxymethylcellulose (CMC))?
A: The T/C was 290 % of control.

Q: And the T/C (dose: 40.0 mg/kg/injection, schedule: Q01DX Z (oral), vehicle: carboxymethylcellulose (CMC))?
A: The T/C was 255 % of control.

Q: And the T/C (dose: 40.0 mg/kg/injection, schedule: Q01DX Z (sc), vehicle: carboxymethylcellulose (CMC))?
A: Its T/C is 360 % of control.

Q: And the T/C (dose: 80.0 mg/kg/injection, schedule: Q01DX Z (oral), vehicle: carboxymethylcellulose (CMC))?
A: The T/C was 270 % of control.

Q: What about the T/C (dose: 80.0 mg/kg/injection, schedule: Q01DX Z (sc), vehicle: carboxymethylcellulose (CMC)) of the same compound?
A: Its T/C is 360 % of control.

Q: What about the T/C (dose: 160.0 mg/kg/injection, schedule: Q01DX Z (oral), vehicle: carboxymethylcellulose (CMC)) of the same compound?
A: Its T/C is 260 % of control.

Q: What about the T/C (dose: 160.0 mg/kg/injection, schedule: Q01DX Z (sc), vehicle: carboxymethylcellulose (CMC)) of the same compound?
A: The T/C was 225 % of control.

Q: And the T/C (dose: 320.0 mg/kg/injection, schedule: Q01DX Z (oral), vehicle: carboxymethylcellulose (CMC))?
A: The T/C was 320 % of control.

Q: What does the source list for `COc1cc([C@@H]2c3cc4c(cc3[C@H](O)[C@H]3COC(=O)[C@H]23)OCO4)cc(OC)c1OC`?
A: T/C (dose: 5.0 mg/kg/injection, schedule: Q01DX Z (sc), vehicle: methylcellulose (MC)): 109 % of control; T/C (dose: 8.4 mg/kg/injection, schedule: Q01DX Z (sc), vehicle: methylcellulose (MC)): 109 % of control; T/C (dose: 14.0 mg/kg/injection, schedule: Q01DX Z (sc), vehicle: methylcellulose (MC)): 104 % of control; T/C (dose: 23.0 mg/kg/injection, schedule: Q01DX Z (sc), vehicle: methylcellulose (MC)): 109 % of control

Q: With `NC(CSC(c1ccccc1)(c1ccccc1)c1ccccc1)C(=O)O` (stereo not drawn) as the compound, how does the T/C (dose: 5.0 mg/kg/injection, schedule: Q03HX003 (sc), vehicle: saline) read?
A: The T/C was 114 % of control.

Q: What about the T/C (dose: 8.4 mg/kg/injection, schedule: Q03HX003 (sc), vehicle: saline) of the same compound?
A: Its T/C is 117 % of control.

Q: What about the T/C (dose: 23.0 mg/kg/injection, schedule: Q03HX003 (sc), vehicle: saline) of the same compound?
A: Its T/C is 150 % of control.

Q: What about the T/C (dose: 39.0 mg/kg/injection, schedule: Q03HX003 (sc), vehicle: saline) of the same compound?
A: Its T/C is 92 % of control.

Q: What about the T/C (dose: 65.0 mg/kg/injection, schedule: Q01DX009 (sc), vehicle: saline) of the same compound?
A: The T/C was 150 % of control.

Q: And the T/C (dose: 108.0 mg/kg/injection, schedule: Q04DX003 (sc), vehicle: saline)?
A: The T/C was 121 % of control.

Q: What about the T/C (dose: 300.0 mg/kg/injection, schedule: Q02DX005 (sc), vehicle: saline) of the same compound?
A: Its T/C is 89 % of control.

Q: What about the T/C (dose: 500.0 mg/kg/injection, schedule: Q02DX005 (sc), vehicle: saline) of the same compound?
A: The T/C was 92 % of control.

Q: What about the T/C (dose: 833.0 mg/kg/injection, schedule: Q04DX003 (sc), vehicle: saline) of the same compound?
A: The T/C was 114 % of control.

Q: With `CC[n+]1ccc(Nc2ccc(NC(=O)c3ccc(Nc4cc[n+](CC)c5ccc(N)cc45)cc3)cc2)cc1` as the compound, how does the T/C (dose: 0.5 mg/kg/injection, schedule: Q01DX009 (sc), vehicle: water) read?
A: The T/C was 100 % of control.

Q: What about the T/C (dose: 0.5 mg/kg/injection, schedule: Q03HX024 (ip), vehicle: water) of the same compound?
A: The T/C was 122 % of control.

Q: And the T/C (dose: 1.0 mg/kg/injection, schedule: Q01DX009 (ip), vehicle: water)?
A: Its T/C is 172 % of control.

Q: What about the T/C (dose: 1.0 mg/kg/injection, schedule: Q01DX009 (sc), vehicle: water) of the same compound?
A: The T/C was 105 % of control.

Q: What about the T/C (dose: 1.0 mg/kg/injection, schedule: Q03HX024 (ip), vehicle: water) of the same compound?
A: The T/C was 177 % of control.

Q: What about the T/C (dose: 1.0 mg/kg/injection, schedule: Q03HX024 (sc), vehicle: water) of the same compound?
A: The T/C was 115 % of control.

Q: And the T/C (dose: 2.0 mg/kg/injection, schedule: Q01DX009 (ip), vehicle: water)?
A: Its T/C is 172 % of control.

Q: And the T/C (dose: 2.0 mg/kg/injection, schedule: Q03HX008 (sc), vehicle: water)?
A: The T/C was 120 % of control.

Q: What about the T/C (dose: 2.0 mg/kg/injection, schedule: Q03HX024 (ip), vehicle: water) of the same compound?
A: The T/C was 200 % of control.

Q: And the T/C (dose: 2.0 mg/kg/injection, schedule: Q03HX024 (sc), vehicle: water)?
A: Its T/C is 160 % of control.

Q: What about the T/C (dose: 2.0 mg/kg/injection, schedule: Q04DX003 (sc), vehicle: water) of the same compound?
A: Its T/C is 100 % of control.

Q: And the T/C (dose: 4.0 mg/kg/injection, schedule: Q01DX001 (sc), vehicle: water)?
A: The T/C was 110 % of control.

Q: What about the T/C (dose: 4.0 mg/kg/injection, schedule: Q01DX009 (ip), vehicle: water) of the same compound?
A: The T/C was 122 % of control.

Q: What about the T/C (dose: 4.0 mg/kg/injection, schedule: Q01DX009 (sc), vehicle: water) of the same compound?
A: Its T/C is 210 % of control.

Q: And the T/C (dose: 4.0 mg/kg/injection, schedule: Q03HX024 (sc), vehicle: water)?
A: Its T/C is 190 % of control.

Q: And the T/C (dose: 4.0 mg/kg/injection, schedule: Q04DX003 (sc), vehicle: water)?
A: Its T/C is 115 % of control.

Q: And the T/C (dose: 8.0 mg/kg/injection, schedule: Q01DX001 (sc), vehicle: water)?
A: Its T/C is 110 % of control.

Q: And the T/C (dose: 8.0 mg/kg/injection, schedule: Q01DX009 (ip), vehicle: water)?
A: The T/C was 111 % of control.

Q: What about the T/C (dose: 8.0 mg/kg/injection, schedule: Q01DX009 (sc), vehicle: water) of the same compound?
A: The T/C was 170 % of control.

Q: What about the T/C (dose: 8.0 mg/kg/injection, schedule: Q03HX008 (sc), vehicle: water) of the same compound?
A: Its T/C is 185 % of control.

Q: What about the T/C (dose: 8.0 mg/kg/injection, schedule: Q03HX024 (ip), vehicle: water) of the same compound?
A: The T/C was 111 % of control.

Q: What about the T/C (dose: 16.0 mg/kg/injection, schedule: Q04DX003 (sc), vehicle: water) of the same compound?
A: Its T/C is 165 % of control.

Q: For `O=C(Nc1ccc(C2=NCCCN2)cc1)c1ccc(C(=O)Nc2ccc(C3=NCCCN3)cc2)nc1`, which T/C (dose: 3.0 mg/kg/injection, schedule: Q01DX Z (sc), vehicle: water) is on record?
A: Its T/C is 100 % of control.

Q: And the T/C (dose: 5.0 mg/kg/injection, schedule: Q01DX Z (sc), vehicle: water)?
A: Its T/C is 100 % of control.

Q: What about the T/C (dose: 8.4 mg/kg/injection, schedule: Q01DX Z (sc), vehicle: water) of the same compound?
A: The T/C was 100 % of control.

Q: And the T/C (dose: 14.0 mg/kg/injection, schedule: Q01DX Z (sc), vehicle: water)?
A: Its T/C is 88 % of control.

Q: And the T/C (dose: 23.0 mg/kg/injection, schedule: Q01DX Z (sc), vehicle: water)?
A: Its T/C is 100 % of control.
